Measured values from patent US20200289392A1, “A MELANOGENESIS INHIBITOR COMPOSITION” (Dow Global Technologies LLC, priority 2017, published 2020).

Biological target: T1, tyrosinase (Homo sapiens, UniProt P14679)
T1 sequence (P14679 19-529): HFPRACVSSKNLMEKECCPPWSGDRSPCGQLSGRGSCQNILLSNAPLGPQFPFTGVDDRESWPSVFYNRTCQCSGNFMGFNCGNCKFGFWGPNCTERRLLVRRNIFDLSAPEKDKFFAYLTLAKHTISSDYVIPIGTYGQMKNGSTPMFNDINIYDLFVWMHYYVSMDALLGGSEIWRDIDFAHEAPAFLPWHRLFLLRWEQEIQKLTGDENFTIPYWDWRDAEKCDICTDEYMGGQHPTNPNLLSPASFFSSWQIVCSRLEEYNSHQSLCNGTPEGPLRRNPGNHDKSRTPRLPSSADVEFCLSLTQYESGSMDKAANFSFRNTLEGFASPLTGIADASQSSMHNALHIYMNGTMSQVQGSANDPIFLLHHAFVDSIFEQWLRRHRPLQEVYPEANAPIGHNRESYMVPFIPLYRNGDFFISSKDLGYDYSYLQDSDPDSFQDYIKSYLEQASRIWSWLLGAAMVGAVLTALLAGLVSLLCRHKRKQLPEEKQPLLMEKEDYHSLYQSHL
Assay: Tyrosinase inhibition
Format: biochemical
Settings: 0.1 wt % active concentration; compared to 0.1 wt % kojic acid

SMILES	tyrosinase inhibition activity compared to that of kojic acid
COc1cc(/C=[N+](\[O-])C(C)C)ccc1O [VAN-IPHA, (Z)—N-(4-hydroxy-3-methoxybenzylidine)propan-2-amine oxide]	negligible
CC(C)/[N+]([O-])=C/c1ccc(O)cc1 [pHBz-IPHA, (Z)—N-(4-hydroxybenzylidene)propan-2-amine oxide]	about 60%
